For series [1], the target named is T1, Epidermal growth factor receptor (Homo sapiens, UniProt P00533).
Description: Inhibition of EGFR by HTRF assay
Series [2] concerns HN5. Description: Antiproliferative activity against human HN5 cells overexpressing EGFR after 3 days. It is filed as functional, cell-based. As to conditions: HN5, 72 h.
In another series the test system is BT-474. Description: Antiproliferative activity against human BT474 cells overexpressing ErbB2 after 3 days. It is filed as functional, cell-based. As to conditions: BT-474, 72 h.
The next series relates to HFF. Description: cells. The series is classed as ADME, cell-based. Particulars: Homo sapiens.
In series [3] the target is T2, Receptor tyrosine-protein kinase erbB-2 (Homo sapiens, UniProt P04626). Description: Inhibition of ErbB2 by HTRF assay. On the technique in general: TR-FRET usually uses a lanthanide donor and a delayed reading to cut background.
T2 sequence (P04626 whole entry): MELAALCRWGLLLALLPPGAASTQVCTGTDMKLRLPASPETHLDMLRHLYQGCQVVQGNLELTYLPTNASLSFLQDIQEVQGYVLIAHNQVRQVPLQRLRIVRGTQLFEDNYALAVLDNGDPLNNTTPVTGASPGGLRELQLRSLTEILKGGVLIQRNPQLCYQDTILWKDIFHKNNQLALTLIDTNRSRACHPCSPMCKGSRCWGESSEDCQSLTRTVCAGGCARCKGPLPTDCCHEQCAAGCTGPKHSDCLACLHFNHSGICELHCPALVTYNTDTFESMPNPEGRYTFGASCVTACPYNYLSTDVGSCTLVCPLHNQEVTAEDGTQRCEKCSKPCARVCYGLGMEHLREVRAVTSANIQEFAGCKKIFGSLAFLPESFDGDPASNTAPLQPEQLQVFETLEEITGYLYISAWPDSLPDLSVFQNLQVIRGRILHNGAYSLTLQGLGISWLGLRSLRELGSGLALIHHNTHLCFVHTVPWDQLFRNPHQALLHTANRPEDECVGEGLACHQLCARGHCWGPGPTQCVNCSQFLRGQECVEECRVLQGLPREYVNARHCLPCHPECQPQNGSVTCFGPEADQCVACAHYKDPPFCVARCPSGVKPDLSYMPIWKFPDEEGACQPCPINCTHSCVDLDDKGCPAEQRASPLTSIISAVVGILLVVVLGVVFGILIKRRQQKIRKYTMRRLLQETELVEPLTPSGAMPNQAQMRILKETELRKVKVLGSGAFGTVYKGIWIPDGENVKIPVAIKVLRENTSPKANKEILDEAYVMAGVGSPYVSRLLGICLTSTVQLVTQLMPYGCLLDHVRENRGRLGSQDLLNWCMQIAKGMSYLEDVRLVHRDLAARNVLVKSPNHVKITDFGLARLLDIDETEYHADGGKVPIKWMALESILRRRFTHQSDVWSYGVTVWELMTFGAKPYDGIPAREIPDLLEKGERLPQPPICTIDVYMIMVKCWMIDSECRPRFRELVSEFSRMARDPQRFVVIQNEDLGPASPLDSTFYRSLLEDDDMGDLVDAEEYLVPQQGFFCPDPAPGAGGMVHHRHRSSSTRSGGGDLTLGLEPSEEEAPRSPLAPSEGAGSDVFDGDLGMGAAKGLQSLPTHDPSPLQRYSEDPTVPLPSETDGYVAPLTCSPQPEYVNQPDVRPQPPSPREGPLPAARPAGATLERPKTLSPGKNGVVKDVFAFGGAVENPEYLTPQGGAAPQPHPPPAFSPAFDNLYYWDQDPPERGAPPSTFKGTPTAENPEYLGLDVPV
Series [4] can be described thus: Protein binding in rat plasma by HPLC. The series is classed as ADME, cell-free. Particulars: read-out: PPB (converted).
Series [5] has as its system HN5. Description: Ratio of IC50 for human HN5 cells to IC50 for hman BT474 cells. It is filed as functional.
Series [6] has as its target T2, Receptor tyrosine-protein kinase erbB-2. Description: Inhibition of ErbB2 by SPA assay.
Another series concerns Mus musculus. Description: Dose normalized AUC in mouse at 10 mg/kg, po after 6 hrs. The arrangement: time < 6 hr, dose 10 mg/kg, route oral. As to conditions: in vivo. The series is classed as ADME, organism-based.
The target in series [7] is T1, Epidermal growth factor receptor. Description: Inhibition of EGFR by SPA assay.

Structures are written as SMILES.

Usually IC50 stands for the point on the concentration scale where inhibition reaches its midpoint. A higher IC50 goes with weaker potency.

T1 sequence (P00533 whole entry): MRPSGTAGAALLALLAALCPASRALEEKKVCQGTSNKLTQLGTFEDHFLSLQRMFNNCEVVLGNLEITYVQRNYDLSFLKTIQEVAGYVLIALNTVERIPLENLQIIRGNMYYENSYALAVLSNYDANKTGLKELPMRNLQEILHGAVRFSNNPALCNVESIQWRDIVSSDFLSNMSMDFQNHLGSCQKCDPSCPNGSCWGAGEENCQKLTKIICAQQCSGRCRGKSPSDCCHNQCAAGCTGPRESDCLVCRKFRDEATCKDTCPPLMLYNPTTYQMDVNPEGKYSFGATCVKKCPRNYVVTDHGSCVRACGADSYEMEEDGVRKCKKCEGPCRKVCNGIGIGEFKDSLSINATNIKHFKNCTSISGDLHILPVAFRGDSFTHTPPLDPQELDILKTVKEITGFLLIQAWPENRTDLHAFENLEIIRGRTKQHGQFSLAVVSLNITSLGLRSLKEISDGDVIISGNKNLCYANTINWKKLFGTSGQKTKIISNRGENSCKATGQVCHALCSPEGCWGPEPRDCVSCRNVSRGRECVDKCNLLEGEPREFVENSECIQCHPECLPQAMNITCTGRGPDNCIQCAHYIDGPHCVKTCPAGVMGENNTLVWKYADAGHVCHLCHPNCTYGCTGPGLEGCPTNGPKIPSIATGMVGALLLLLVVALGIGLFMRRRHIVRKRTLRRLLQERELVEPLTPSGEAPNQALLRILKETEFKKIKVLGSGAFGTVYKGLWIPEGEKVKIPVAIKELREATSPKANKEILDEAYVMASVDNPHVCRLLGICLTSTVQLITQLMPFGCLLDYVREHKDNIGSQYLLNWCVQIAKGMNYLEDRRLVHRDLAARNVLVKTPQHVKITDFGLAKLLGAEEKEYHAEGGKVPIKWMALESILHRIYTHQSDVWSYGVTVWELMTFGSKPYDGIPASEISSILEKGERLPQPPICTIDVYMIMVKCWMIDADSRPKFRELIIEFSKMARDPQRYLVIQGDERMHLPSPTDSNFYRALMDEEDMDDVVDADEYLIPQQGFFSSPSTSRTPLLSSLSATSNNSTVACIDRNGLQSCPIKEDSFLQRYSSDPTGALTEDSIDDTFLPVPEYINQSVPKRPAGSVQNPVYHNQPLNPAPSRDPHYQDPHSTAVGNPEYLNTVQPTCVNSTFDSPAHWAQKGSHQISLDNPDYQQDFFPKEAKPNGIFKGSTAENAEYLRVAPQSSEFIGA

`O=C(O[C@H]1CN[C@H](C#Cc2cc3ncnc(Nc4ccc5c(Oc6ccccn6)cccc5c4)c3s2)C1)N1CCOCC1`: the IC50 in series [1] was 1.05 µM; in the series with HN5 [2], 0.12 µM; in the series on BT-474, 0.1 µM; with HFF, above 1 µM; in series [3] it was 0.26 µM.
`O=C(O[C@H]1CN[C@H](C#Cc2cc3ncnc(Nc4ccc(Cc5ccccc5)cc4)c3s2)C1)N1CCOCC1`: the half-inhibitory concentration (IC50) in [1] was 0.24 µM; with HN5 [2], 0.27 µM; in the series on BT-474, 0.07 µM; in the series with HFF, above 1 µM. The fraction unbound in [4] is 0.036.
With `O=C(O[C@H]1CN[C@H](C#Cc2cc3ncnc(Nc4ccc5c(cnn5Cc5cc(F)ccc5F)c4)c3s2)C1)N1CCOCC1`, the IC50 in series [1] was 0.033 µM; with HN5 [2] it was 0.25 µM; in the series on BT-474, 0.01 µM; with HFF, above 1 µM; in series [3], 0.035 µM. The “Ratio IC50” value in the series on HN5 [5] came to 20.
Consider `O=C(O[C@H]1CN[C@H](C#Cc2cc3ncnc(Nc4ccc(OCc5ccccn5)c(Cl)c4)c3s2)C1)N1CCOCC1`, for which the IC50 in series [6] is 0.03 µM; with HN5 [2], 0.24 µM; in the series on BT-474 it was 0.06 µM; in the series on HFF, above 1 µM. The AUC in the series on Mus musculus was 120 ng·h/mL/mg/kg. Besides, the fraction unbound in series [4] was 0.031.
In the case of `O=C(O[C@H]1CN[C@H](C#Cc2cc3ncnc(Nc4ccc(OCc5cccc(F)c5)c(Cl)c4)c3s2)C1)N1CCOCC1` [GW869810X], the values for the IC50 in the series on HN5 [2], in the series on BT-474 and in the series with HFF were 0.26 µM, 0.09 µM and above 1 µM, respectively. The same compound registered an AUC in the series on Mus musculus of 91 ng·h/mL/mg/kg. Further, in series [4], the fraction unbound was 0.02.
`O=C(O[C@H]1CN[C@H](C#Cc2cc3ncnc(Nc4ccc(OCc5cscn5)c(Cl)c4)c3s2)C1)N1CCOCC1`: the IC50 in [1] was 0.12 µM; with HN5 [2], 0.44 µM; with BT-474 it was 0.07 µM; with HFF it was above 1 µM; in series [3] it was 0.06 µM. For the same compound, the fraction unbound in series [4] was 0.051.
As to `CC(c1cccc(F)c1)n1ncc2cc(Nc3ncnc4cc(C#C[C@@H]5C[C@@H](OC(=O)N6CCOCC6)CN5)sc34)ccc21` (stereo partly specified), the IC50 in series [1] is 0.12 µM; with HN5 [2], 0.07 µM; in the series with BT-474, 0.13 µM; in the series with HFF, above 1 µM; in series [3], 0.13 µM.
Consider `O=C(O[C@H]1CN[C@H](C#Cc2cc3ncnc(Nc4ccc5c(cnn5S(=O)(=O)c5cccc(F)c5)c4)c3s2)C1)N1CCOCC1`, for which the IC50 was 0.23 µM in series [1]; 0.54 µM in the series on HN5 [2]; 0.11 µM in the series on BT-474; above 1 µM in the series with HFF; 0.085 µM in series [3].
On to `O=C(O[C@H]1CN[C@H](C#Cc2cc3ncnc(Nc4ccc5c(ccn5CCc5ccccc5)c4)c3s2)C1)N1CCOCC1`, for which the IC50 in [6] is 2.66 µM; in the series with HN5 [2], 2.02 µM; in the series on BT-474, 4.85 µM; with HFF, above 1 µM.
Regarding `Cc1cc(Oc2ccc(Nc3ncnc4cc(C#C[C@@H]5C[C@@H](OC(=O)N6CCOCC6)CN5)sc34)cc2Cl)no1`, the IC50 is 0.4 µM in [1]; 1.45 µM with HN5 [2]; 0.13 µM in the series with BT-474; above 1 µM in the series on HFF; 0.37 µM in series [3].
Regarding `O=C(O[C@H]1CN[C@H](C#Cc2cc3ncnc(Nc4ccc5c(ccn5S(=O)(=O)c5ccsc5)c4)c3s2)C1)N1CCOCC1`, the IC50 in series [6] was 0.12 µM; in the series with HN5 [2], 0.63 µM; in [7] it was 0.15 µM; with BT-474, 0.12 µM; in the series on HFF, above 1 µM.
Regarding `O=C(O[C@H]1CN[C@H](C#Cc2cc3ncnc(Nc4ccc5c(ccn5Cc5cscn5)c4)c3s2)C1)N1CCOCC1`, the IC50 in series [1] is 0.68 µM; in the series with HN5 [2], 0.55 µM; in the series with BT-474, 0.12 µM; in the series on HFF, above 1 µM; in series [3], 0.18 µM.
On to `O=C(O[C@H]1CN[C@H](C#Cc2cc3ncnc(Nc4ccc5c(ccn5Cc5ccccc5)c4)c3s2)C1)N1CCOCC1`, for which the 50% inhibitory concentration (IC50) in series [1] is 0.09 µM; with HN5 [2] it was 0.19 µM; in the series with BT-474 it was 0.11 µM; in the series with HFF, above 1 µM; in [3], 0.06 µM.
In the case of `O=C(O[C@H]1CN[C@H](C#Cc2cc3ncnc(Nc4ccc(Oc5ccccn5)c(Cl)c4)c3s2)C1)N1CCOCC1`, the IC50 in series [6] was 0.06 µM; in the series on HN5 [2], 0.28 µM; in the series with BT-474, 0.08 µM; in the series on HFF, above 1 µM. In addition, the AUC in the series with Mus musculus came to 52 ng·h/mL/mg/kg. In series [4], the fraction unbound is 0.033.
Consider `O=C(O[C@H]1CN[C@H](C#Cc2cc3ncnc(Nc4ccc(OCc5cccc(F)c5)nc4)c3s2)C1)N1CCOCC1`, for which the IC50 in series [1] was 2.6 µM; in the series on HN5 [2], 0.49 µM; in the series on BT-474, 0.25 µM; with HFF, above 1 µM; in [3] it was 0.45 µM.
Consider `O=C(O[C@H]1CN[C@H](C#Cc2cc3ncnc(Nc4ccc(Sc5cccc(F)c5)c(Cl)c4)c3s2)C1)N1CCOCC1`, for which the IC50 in [1] is 0.63 µM; in the series on HN5 [2] it was 0.31 µM; with BT-474, 0.15 µM; with HFF, above 1 µM; in [3], 0.8 µM. In series [4], the fraction unbound is 0.024.
On to `O=C(O[C@H]1CN[C@H](C#Cc2cc3ncnc(Nc4ccc(Oc5ccnc6ccc(F)cc56)c(Cl)c4)c3s2)C1)N1CCOCC1`, for which the half-maximal inhibitory concentration (IC50) in [1] is 0.28 µM; in the series with HN5 [2], 0.39 µM; in the series on BT-474, 0.14 µM; with HFF it was above 1 µM; in series [3], 0.18 µM. Besides, the fraction unbound in series [4] was 0.03.
On to `O=C(O[C@H]1CN[C@H](C#Cc2cc3ncnc(Nc4ccc(Sc5ccccn5)cc4)c3s2)C1)N1CCOCC1`, for which the IC50 was 1.65 µM in [1]; 0.38 µM with HN5 [2]; 0.1 µM with BT-474; above 1 µM in the series on HFF; 0.22 µM in series [3].
For `O=C(O[C@H]1CN[C@H](C#Cc2cc3ncnc(Nc4ccc5c(c4)c(F)cn5Cc4ccccc4)c3s2)C1)N1CCOCC1` the same measures were 0.24 µM, 0.32 µM, 0.12 µM, above 1 µM and 0.21 µM.
In the case of `O=C(O[C@H]1CN[C@H](C#Cc2cc3ncnc(Nc4ccc5c(cnn5Cc5cccc(F)c5)c4)c3s2)C1)N1CCOCC1`, the IC50 was 0.07 µM with HN5 [2] and above 1 µM in the series on HFF. Also, in the series on Mus musculus, the AUC was determined as 51 ng·h/mL/mg/kg. Moreover, the fraction unbound in series [4] was 0.05.
Regarding `O=C(O[C@H]1CN[C@H](C#Cc2cc3ncnc(Nc4ccc5c(cnn5Cc5ccccc5)c4)c3s2)C1)N1CCOCC1`, the IC50 in series [1] is 0.08 µM; in the series with HN5 [2] it was 0.07 µM; in the series on BT-474, 0.02 µM; in the series on HFF it was above 1 µM; in series [3], 0.05 µM. The same compound came in with an AUC in the series on Mus musculus of 98 ng·h/mL/mg/kg. For the same compound, the fraction unbound in series [4] was 0.027.

The record behind these values is ChEMBL document CHEMBL1153281, “Synthesis and evaluation of aniline headgroups for alkynyl thienopyrimidine dual EGFR/ErbB-2 kinase inhibitors” (Bioorg Med Chem Lett, 2009).
